Consider 23 compounds from patent US8044211B2 (Chroma Therapeutics Ltd., priority 2006, dated 2011).

Molecules are shown by their SMILES. Structures can show the parent of a compound that is named as a salt. Bounds are passed on as bounds.

In one test the target is T1, p38 MAP Kinase a (Homo sapiens, UniProt Q16539).
T1 construct: purchased Upstate (Dundee UK)
As to the kind of experiment: p38 MAP Kinase activity, radiometric filter-binding assay (Upstate). The class given is biochemical. To be noted: IC50 range; ATP at or close to Km; read-out: Inhibitor activity versus p38 MAPKa. The method, then:
The ability of compounds to inhibit p38 MAP a Kinase activity was measured in an assay performed by Upstate (Dundee UK). In a final reaction volume of 25 μL, p38 MAP Kinase a (5-10 mU) is incubated with 25 mM Tris pH 7.5, 0.002 mMEGTA, 0.33 mg/mL myelin basic protein, 10 mM MgAcetate and [g-33P-ATP] (specific activity approx. 500 cpm/pmol, concentration as required). The reaction is initiated by the addition of the MgATP mix. After incubation for 40 minutes at room temperature, the reaction is stopped by the addition of 5 μL of a 3% phosphoric acid solution. 10 μL of the reaction is then spotted onto a P30 filtermat and washed three times for 5 minutes in 75 mM phosphoric acid and once in methanol prior to drying and scintillation counting.
Duplicate data points are generated from a ⅓ log dilution series of a stock solution in DMSO. Nine dilutions steps are made from a top concentration of 10 μM, and a ‘no compound’ blank is included. The standard radiometric filter-binding assay is performed at an ATP concentration at, or close to, the Km. Data from scintillation counts are collected and subjected to free-fit analysis by Prism software. From the curve generated, the concentration giving 50% inhibition is determined and reported.

In another test the test system is THP-1 TNFα release. The test can be described thus: LPS-stimulation of THP-1 cells, TNF-α by ELISA. The test is classed as cell-based. To be noted: Homo sapiens, THP-1; IC50 range; LPS 1 μg/ml, 6 hrs; read-out: Inhibitor activity versus THP-1 TNFα release. The method, then: THP-1 cells were plated in 100 μl at a density of 4×10^4 cells/well in V-bottomed 96 well tissue culture treated plates and incubated at 37° C. in 5% CO2 for 16 hrs. 2 hrs after the addition of the inhibitor in […], of tissue culture media, the cells were stimulated with LPS (E. coli strain 005:B5, Sigma) at a final concentration of 1 μg/ml and incubated at 37° C. in 5% CO2 for 6 hrs. TNF-α levels were measured from cell-free supernatants by sandwich ELISA (R&D Systems #QTA00B).
For orientation: In an ELISA, binding on a coated surface is turned into a signal by an enzyme label.

T1 sequence (Q16539 whole entry): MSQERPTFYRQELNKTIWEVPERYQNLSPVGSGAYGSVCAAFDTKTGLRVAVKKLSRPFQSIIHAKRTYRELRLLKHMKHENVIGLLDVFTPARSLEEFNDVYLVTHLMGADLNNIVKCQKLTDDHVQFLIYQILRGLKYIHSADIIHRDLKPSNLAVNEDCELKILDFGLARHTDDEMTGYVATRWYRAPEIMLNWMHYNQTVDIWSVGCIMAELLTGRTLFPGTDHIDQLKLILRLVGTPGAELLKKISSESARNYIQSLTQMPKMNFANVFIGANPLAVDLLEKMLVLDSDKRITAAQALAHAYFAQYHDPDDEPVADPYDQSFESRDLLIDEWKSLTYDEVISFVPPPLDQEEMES

As to `Nc1c(C(=O)c2ccc(F)cc2)ccc(=O)n1-c1ccc(OCCCN[C@@H](Cc2ccccc2)C(=O)OC2CCCC2)cc1` [Example 24, Cyclopentyl(S)-2-(3-{4-[6-Amino-5-(4-fluorobenzoyl)-2-oxo-2H-pyridin-1-yl]phenoxy}propylamino)-3-phenylpropionate], the IC50 on p38 MAP Kinase a was below 100 nM; in the test with THP-1 TNFα release it was 100 to 1000 nM.

With `Cc1cc(C(=O)c2ccc(=O)n(-c3ccc(OCCCN[C@H](C(=O)OC4CCCC4)c4ccccc4)cc3)c2N)ccc1F` [Example 26], the results for the IC50 at p38 MAP Kinase a and with THP-1 TNFα release were below 100 nM and 100 to 1000 nM, respectively.

On to `Nc1c(C(=O)c2ccc(F)cc2F)ccc(=O)n1-c1ccc(OCCCN[C@H](C(=O)OC2CCCC2)c2ccccc2)cc1` [Example 28, Cyclopentyl(S)-(3-{4-[6-Amino-5-(2,4-difluorobenzoyl)-2-oxo-2H-pyridin-1-yl]1-phenoxy}propylamino)phenyl acetate], for which the IC50 on p38 MAP Kinase a and with THP-1 TNFα release was below 100 nM throughout.

As to `Nc1c(C(=O)c2ccc(F)cc2F)ccc(=O)n1-c1ccc(OCCCN[C@@H](Cc2ccccc2)C(=O)OC2CCCC2)cc1` [Example 29, Cyclopentyl(S)-2-(3-{4-[6-Amino-5-(2,4-difluorobenzoyl)-2-oxo-2H-pyridin-1-yl]phenoxy}propylamino)-3-phenyl propionate], the IC50 is below 100 nM at p38 MAP Kinase a and 100 to 1000 nM with THP-1 TNFα release.

In the case of `CC(C)C[C@H](NCCCOc1ccc(-n2c(N)c(C(=O)c3ccc(F)cc3F)ccc2=O)cc1)C(=O)OC1CCCC1` [Example 30, Cyclopentyl(S)-2-(3-{4-[6-Amino-5-(2,4-difluorobenzoyl)-2-oxo-2H-pyridin-1-yl]phenoxy}propylamino)-4-methyl pentanoate], the IC50 at p38 MAP Kinase a and in the test on THP-1 TNFα release was below 100 nM each time.

In the case of `Nc1c(C(=O)c2ccc(F)cc2)ccc(=O)n1-c1c(F)cc(OC2CCC(N[C@@H](Cc3ccccc3)C(=O)OC3CCCC3)CC2)cc1F` (stereo partly shown) [Example 31, trifluoroacetate], the IC50 on p38 MAP Kinase a and with THP-1 TNFα release was below 100 nM each time.

With `Nc1c(C(=O)c2ccc(F)cc2)ccc(=O)n1-c1c(F)cc(OC2CCC(N[C@H](C(=O)OC3CCCC3)c3ccccc3)CC2)cc1F` (stereo partly drawn) [Example 32, Cyclopentyl(2S)-[(4-{4-[6-amino-5-(4-fluorobenzoyl)-2-oxopyridin-1(2H)-yl]-3,5-difluorophenoxy}cyclohexyl)amino](phenyl)acetate], the IC50 on p38 MAP Kinase a and in the test on THP-1 TNFα release was below 100 nM in each case.

As to `CC(C)C[C@H](NC1CCC(Oc2cc(F)c(-n3c(N)c(C(=O)c4ccc(F)cc4)ccc3=O)c(F)c2)CC1)C(=O)OC1CCCC1` (stereo partly drawn) [Example 33, Cyclopentyl(S)-2-(4-{4-[6-Amino-5-(4-fluorobenzoyl)-2-oxo-2H-pyridin-1-yl]-3,5-difluorophenoxy}cyclohexylamino)-4-methylpentanoate], the IC50 on p38 MAP Kinase a and in the test on THP-1 TNFα release was below 100 nM in each case.

As to `CC(C)(C)OC(=O)[C@H](Cc1ccccc1)NCCCOc1cc(F)c(-n2c(N)c(C(=O)c3ccc(F)cc3F)ccc2=O)c(F)c1` [Example 37, tert-Butyl(S)-2-(3-{4-[6-Amino-5-(2,4-difluorobenzoyl)-2-oxo-2H-pyridin-1-yl]-3,5-difluorophenoxy}-propylamino)-3-phenyl propionate], the IC50 at p38 MAP Kinase a is below 100 nM; with THP-1 TNFα release, 100 to 1000 nM.

As to `CC(C)C[C@H](NCCCOc1ccc(-n2c(N)c(C(=O)c3ccc(F)cc3F)ccc2=O)cc1)C(=O)OC(C)(C)C` [Example 39, tert-Butyl(S)-2-(3-{4-[6-Amino-5-(2,4-difluorobenzoyl)-2-oxo-2H-pyridin-1-yl]phenoxy}propylamino)-4-methyl pentanoate], the results for the IC50 at p38 MAP Kinase a and with THP-1 TNFα release were below 100 nM and 100 to 1000 nM, respectively.

For `Nc1c(C(=O)c2ccc(F)cc2F)ccc(=O)n1-c1c(F)cc(OCCCN[C@H](C(=O)OC2Cc3ccccc3C2)c2ccccc2)cc1F` [Example 40, 2,3-Dihydro-1H-inden-2-yl (2S)-[(3-{4-[6-amino-5-(2,4-difluorobenzoyl)-2-oxopyridin-1(2H)-yl]-3,5-difluorophenoxy}propyl)amino](phenyl)acetate], the IC50 on p38 MAP Kinase a and in the test with THP-1 TNFα release was below 100 nM in each case.

Consider `Nc1c(C(=O)c2ccc(F)cc2F)ccc(=O)n1-c1c(F)cc(OCCCN[C@H](C(=O)OC2CC3CCC2C3)c2ccccc2)cc1F` (stereo partly drawn) [Example 43, Bicyclo[2.2.1]hept-2-yl(2S)-[(3-{4-[6-amino-5-(2,4-difluorobenzoyl)-2-oxopyridin-1(2H)-yl]-3,5-difluorophenoxy}propyl)amino](phenyl)acetate], for which the IC50 on p38 MAP Kinase a and in the test with THP-1 TNFα release was below 100 nM throughout.

On to `Nc1c(C(=O)c2ccc(F)cc2F)ccc(=O)n1-c1c(F)cc(OCCCN[C@@H](C(=O)OC2CC3CCC2C3)c2ccccc2)cc1F` (stereo partly drawn) [Example 44, Bicyclo[2.2.1]hept-2-yl (2R)-[(3-{4-[6-amino-5-(2,4-difluorobenzoyl)-2-oxopyridin-1(2H)-yl]-3,5-difluorophenoxy}propyl)amino](phenyl)acetate], for which the IC50 on p38 MAP Kinase a is 100 to 1000 nM; in the test on THP-1 TNFα release, below 100 nM.

Consider `CC(C)C[C@@H](NCCCOc1cc(F)c(-n2c(N)c(C(=O)c3ccc(F)cc3F)ccc2=O)c(F)c1)C(=O)OC1CCCC1` [Example 50, Cyclopentyl N-(3-{4-[6-amino-5-(2,4-difluorobenzoyl)-2-oxopyridin-1(2H)-yl]-3,5-difluorophenoxy}propyl)-D-leucinate], for which the IC50 on p38 MAP Kinase a and with THP-1 TNFα release was below 100 nM throughout.

For the compound `CC(C)C[C@@H](NCCCOc1cc(F)c(-n2c(N)c(C(=O)c3ccc(F)cc3F)ccc2=O)c(F)c1)C(=O)OC(C)(C)C` [Example 51, tert-Butyl N-(3-{4-[6-amino-5-(2,4-difluorobenzoyl)-2-oxopyridin-1(2H)-yl]-3,5-difluorophenoxy}propyl)-D-leucinate], the IC50 at p38 MAP Kinase a and in the test with THP-1 TNFα release was below 100 nM throughout.

In the case of `CC(C)C[C@H](NCCCCCOc1cc(F)c(-n2c(N)c(C(=O)c3ccc(F)cc3F)ccc2=O)c(F)c1)C(=O)OC(C)(C)C` [Example 54, tert-Butyl N-(5-{4-[6-amino-5-(2,4-difluorobenzoyl)-2-oxopyridin-1(2H)-yl]-3,5-difluorophenoxy}pentyl)-L-leucinate], the IC50 on p38 MAP Kinase a and in the test on THP-1 TNFα release was below 100 nM in each case.

`CC(C)C[C@H](NCCCCCOc1cc(F)c(-n2c(N)c(C(=O)c3ccc(F)cc3)ccc2=O)c(F)c1)C(=O)OC1CCCC1` [Example 55, Cyclopentyl N-(5-{4-[6-amino-5-(4-fluorobenzoyl)-2-oxopyridin-1(2H)-yl]-3,5-difluorophenoxy}pentyl)-L-leucinate]: the IC50 was 100 to 1000 nM on p38 MAP Kinase a and below 100 nM with THP-1 TNFα release.

Regarding `CC(C)C[C@H](NC(=O)COc1ccc(-n2c(N)c(C(=O)c3ccc(F)cc3)ccc2=O)cc1)C(=O)OC1CCCC1` [Example 56, Cyclopentyl N-({4-[6-amino-5-(4-fluorobenzoyl)-2-oxopyridin-1(2H)-yl]phenoxy}acetyl)-L-leucinate], the IC50 is 100 to 1000 nM at p38 MAP Kinase a and above 1000 nM in the test on THP-1 TNFα release.

Turning to `CC(C)C[C@H](NCCc1ccc(-n2c(N)c(C(=O)c3ccc(F)cc3F)ccc2=O)cc1)C(=O)OC(C)(C)C` [Example 60, tert-Butyl N-[2-(4-{6-amino-5-[(2,4-difluorophenyl)carbonyl]-2-oxopyridin-1(2H)-yl}phenyl)ethyl]-L-leucinate], the results for the IC50 at p38 MAP Kinase a and in the test with THP-1 TNFα release were 100 to 1000 nM and below 100 nM, respectively.

Take `Nc1c(C(=O)c2ccc(F)cc2)ccc(=O)n1-c1ccc(CCN[C@H](C(=O)OC2CCCC2)c2ccccc2)cc1` [Example 61, Cyclopentyl(2S)-{[2-(4-{6-amino-5-[(4-fluorophenyl)carbonyl]-2-oxopyridin-1(2H)-yl}phenyl)ethyl]amino}(phenyl)ethanoate]: the IC50 on p38 MAP Kinase a is 100 to 1000 nM; in the test on THP-1 TNFα release, below 100 nM.

For `CC(C)(C)OC(=O)[C@@H](NCCc1ccc(-n2c(N)c(C(=O)c3ccc(F)cc3)ccc2=O)cc1)c1ccccc1` [Example 62, tert-Butyl (2S)-{[2-(4-{6-amino-5-[(4-fluorophenyl)carbonyl]-2-oxopyridin-1(2H)-yl}phenyl)ethyl]amino}(phenyl)ethanoate], the IC50 on p38 MAP Kinase a and in the test on THP-1 TNFα release was 100 to 1000 nM throughout.

Turning to `Cc1ccc(C(=O)c2ccc(=O)n(-c3ccc(CCN[C@@H](CC(C)C)C(=O)OC4CCCC4)cc3)c2N)cc1` [Example 63, Cyclopentyl N-[2-(4-{6-amino-5-[(4-methylphenyl)carbonyl]-2-oxopyridin-1(2H)-yl}phenyl)ethyl]-L-leucinate], the IC50 on p38 MAP Kinase a was above 1000 nM; in the test with THP-1 TNFα release, below 100 nM.

Turning to `COc1ccc(C(=O)c2ccc(=O)n(-c3ccc(CCN[C@@H](CC(C)C)C(=O)OC4CCCC4)cc3)c2N)cc1` [Example 64, Cyclopentyl N-[2-(4-{6-amino-5-[(4-methoxyphenyl)carbonyl]-2-oxopyridin-1(2H)-yl}phenyl)ethyl]-L-leucinate], the IC50 is above 1000 nM on p38 MAP Kinase a and 100 to 1000 nM with THP-1 TNFα release.
